The values that follow come from US12319643B2, “Ionizable compounds and compositions and uses thereof” (Nitto Denko Corporation, priority 2015, dated 2025).

Series [1] is described as follows: pKa (Table 9, lipid formulations for siRNA). It is filed as physicochemical. To be noted: only or first value of the cell.
Series [2] in a line: Serum stability of nanoparticle formulations, t(½) in human serum at 37 C. In kind it is in vitro ADME. The following applies: Table 10, nanoparticles Ionizable compound/DOPE/Cholesterol/DMPE-PEG 50/28/21/1 mol %. As for the experimental part: (§1) Example 39: Formulations were Prepared for Encapsulating a Small Interfering Nucleic Acid Agents (siRNA)
(§2) Lipid nanoparticle formulations were prepared with the following compositions: […]
(§3) (Ionizable compound/DOPE/Cholesterol/DMPE-PEG) mol % • 50/28/21/1.
The formulations were capable of encapsulating the siRNA, and retaining stability in human serum. […]

Series [3] concerns GFP. Put plainly: EC50 of nanoparticle formulations, GFP siRNA. It is filed as cell-based. The following applies: nanoparticles Ionizable compound/DOPE/Cholesterol/DMPE-PEG 50/28/21/1 mol %. As for the experimental part: as §1, §2, §3
The formulations were capable of encapsulating the siRNA, and retaining stability in human serum.

Series [4] in a line: Particle size Z (ave) of siRNA lipid nanoparticle formulations. In kind it is physicochemical. The following applies: Table 8: nanoparticles Ionizable compound/DOPE/DOPC/Cholesterol/DMPE-PEG 50/28/0/21/1, 50/28/0/20/2 or 26/21/21/31/1 mol %. As for the experimental part:
(§4) Example 38: Formulations were Prepared for Encapsulating a Small Interfering Nucleic Acid Agents (siRNA)
as §2

Series [5] can be described thus: Encapsulation efficiency for siRNA of lipid (nanoparticle) formulations. To be noted: Table 8: nanoparticles Ionizable compound/DOPE/DOPC/Cholesterol/DMPE-PEG 50/28/0/21/1, 50/28/0/20/2 or 26/21/21/31/1 mol %. It is filed as physicochemical. How it is done: as §4, §2

The compound `CCCCCCCCCCCCCC(=O)OCCN(CCOC(=O)CCCCCCCCCCCCC)C(=O)CN1C[C@H](O)[C@@H](O)C1` [Compound A4, ((2-((3S,4S)-3,4-dihydroxypyrrolidin-1-yl)acetyl)azanediyl)bis(ethane-2,1-diyl) ditetradecanoate] showed a pKa in series [1] of 5.8.

Consider `CCCCC/C=C\C/C=C\CCCCCCCC(=O)OCCN(CCOC(=O)CCCCCCC/C=C\C/C=C\CCCCC)C(=O)CN1C[C@@H](O)[C@H](O)C1` [Compound A5, ((2-((3R,4R)-3,4-dihydroxypyrrolidin-1-yl)acetyl)azanediyl)bis(ethane-2,1-diyl) (9Z,9′Z,12Z,12′Z)-bis(octadeca-9,12-dienoate)], for which, in series [2], the “t(½) (hr) human serum 37 C.” value was more than 50 h. Besides, in series [3], the concentration for a half-maximal effect (EC50) is 6.9 nM. In addition, the pKa in series [1] came to 6.1.

For `CCCCC/C=C\C/C=C\CCCCCCCC(=O)OCCN(CCOC(=O)CCCCCCC/C=C\C/C=C\CCCCC)C(=O)CN1C[C@@H](O)[C@@H](O)C1` [Compound A6, ((2-((3S,4R)-3,4-dihydroxypyrrolidin-1-yl)acetyl)azanediyl)bis(ethane-2,1-diyl) (9Z,9′Z,12Z,12′Z)-bis(octadeca-9,12-dienoate)], the “t(½) (hr) human serum 37 C.” value in series [2] is more than 50 h. The compound further showed an EC50 in series [3] of 11 nM. In addition, the “Z (ave) nm” value in series [4] came out at 121 nm. In series [1], this compound registered a pKa of 6.3. Besides, the “EE* (%) Encapsulation efficiency for siRNA” value in series [5] stood at 96%.

`CCCCC/C=C\C/C=C\CCCCCCCC(=O)OCCN(CCOC(=O)CCCCCCC/C=C\C/C=C\CCCCC)C(=O)OCCN(C)C` [Compound A7, (((2-(dimethylamino)ethoxy)carbonyl)azanediyl)bis(ethane-2,1-diyl) (9Z,9′Z,12Z,12′Z)-bis(octadeca-9,12-dienoate)]: the “t(½) (hr) human serum 37 C.” value in series [2] was more than 50 h. Also, in series [3], the midpoint of the response, the EC50, lay at 35 nM. Moreover, the pKa in series [1] stood at 7.6.

Turning to `CCCCC/C=C\C/C=C\CCCCCCCC(=O)OCCN(CCOC(=O)CCCCCCC/C=C\C/C=C\CCCCC)C(=O)OCC[N+](C)(C)C` [Compound A8, 2-((bis(2-(((9Z,12Z)-octadeca-9,12-dienoyl)oxy)ethyl)carbamoyl)oxy)-N,N,N-trimethylethan-1-aminium], in series [2], the “t(½) (hr) human serum 37 C.” value is more than 50 h.

`CCCCCCCCCCCCCC(=O)OCCN(CCOC(=O)CCCCCCCCCCCCC)C(=O)CN1CC(CO)C1` [Compound A9, ((2-(3-(hydroxymethyl)azetidin-1-yl)acetyl)azanediyl)bis(ethane-2,1-diyl) ditetradecanoate] had an EC50 in series [3] of 31 nM. In addition, in series [4], the “Z (ave) nm” value stood at 97 nm. The compound further gave a pKa in series [1] of 7.4. For the same compound, the “EE* (%) Encapsulation efficiency for siRNA” value in series [5] was found to be 95%.

In turn, `CCCCC/C=C\C/C=C\CCCCCCCC(=O)OCCN(CCOC(=O)CCCCCCC/C=C\C/C=C\CCCCC)C(=O)CN1CCN(CCCO)CC1` [Compound AA] displayed an EC50 in series [3] of 22 nM. The “Z (ave) nm” value in series [4] was determined as 120 nm. Also, the pKa in series [1] stood at 7.4. For the same compound, in series [5], the “EE* (%) Encapsulation efficiency for siRNA” value is 90%.

Turning to `CCCCC/C=C\C/C=C\CCCCCCCC(=O)OCCN(CCOC(=O)CCCCCCC/C=C\C/C=C\CCCCC)C(=O)CN1CCN(CCO)CC1` [Compound AB, ((2-(4-(2-hydroxyethyl)piperazin-1-yl)acetyl)azanediyl)bis(ethane-2,1-diyl) (9Z,9′Z,12Z,12′Z)-bis(octadeca-9,12-dienoate)], the “t(½) (hr) human serum 37 C.” value in series [2] was more than 50 h. Besides, in series [3], the EC50 turned out to be 7.4 nM. The compound also yielded a pKa in series [1] of 6.9.

As for `CCCCCCCCCCCCCC(=O)OCCN(CCOC(=O)CCCCCCCCCCCCC)C(=O)CCCC(=O)O` [Compound B8], the “t(½) (hr) human serum 37 C.” value in series [2] is more than 50 h. Moreover, the pKa in series [1] was 4.3.

In series [3], `CCCC/C=C\C/C=C\CCCCCCCCOC(=O)CC(CC(=O)OCCCCCCCC/C=C\C/C=C\CCCCC)NC(=O)C[N+](C)(C)C` (centres unmarked) [Compound C2, 2-((1-(((9Z,12Z)-heptadeca-9,12-dien-1-yl)oxy)-5-(((9Z,12Z)-octadeca-9,12-dien-1-yl)oxy)-1,5-dioxopentan-3-yl)amino)-N,N,N-trimethyl-2-oxoethan-1-aminium] displayed a half-maximal effective concentration (EC50) of 33 nM. The “Z (ave) nm” value in series [4] was 111 nm. Also, the “EE* (%) Encapsulation efficiency for siRNA” value in series [5] came out at 95%.

As to `CCCC/C=C\C/C=C\CCCCCCCCOC(=O)CC(CC(=O)OCCCCCCCC/C=C\C/C=C\CCCCC)NC(=O)CN(C)C` (centres unmarked) [Compound C3, 1-((9Z,12Z)-heptadeca-9,12-dien-1-yl) 5-((9Z,12Z)-octadeca-9,12-dien-1-yl) 3-(2-(dimethylamino)acetamido)pentanedioate], the pKa in series [1] stood at 6.9.

Regarding `CCCCC/C=C\C/C=C\CCCCCCCCOC(=O)[C@H](CNC(=O)C[N+](C)(C)C)NC(=O)CCCCCCC/C=C\C/C=C\CCCCC` [Compound C24, N,N,N-trimethyl-2-(((S)-3-(((9Z,12Z)-octadeca-9,12-dien-1-yl)oxy)-2-((9Z,12Z)-octadeca-9,12-dienamido)-3-oxopropyl)amino)-2-oxoethan-1l-aminium], in series [2], the “t(½) (hr) human serum 37 C.” value is more than 50 h. In series [3], this compound yielded a half-maximal effective concentration (EC50) of 92 nM. Moreover, in series [4], the “Z (ave) nm” value stood at 127 nm. The “EE* (%) Encapsulation efficiency for siRNA” value in series [5] is reported as 98%.

Regarding `CCCCC/C=C\C/C=C\CCCCCCCCOC(=O)[C@H](CNC(=O)CN(C)C)NC(=O)CCCCCCC/C=C\C/C=C\CCCCC` [Compound C25, (9Z,12Z)-octadeca-9,12-dien-1-yl (S)-3-(2-(dimethylamino)acetamido)-2-((9Z,12Z)-octadeca-9,12-dienamido)propanoate], in series [2], the “t(½) (hr) human serum 37 C.” value was more than 50 h.

As to `CCCCC/C=C\C/C=C\CCCCCCCCOC(=O)CC(CC(=O)OCCCCCCCC/C=C\C/C=C\CCCCC)NC(=O)CN1CCN(CCO)CC1` [Compound CA, di((9Z,12Z)-octadeca-9,12-dien-1-yl) 3-(2-(4-(2-hydroxyethyl)piperazin-1-yl)acetamido)pentanedioate], the concentration for a half-maximal effect (EC50) in series [3] is less than 50 nM.

Take `CCCCC/C=C\C/C=C\CCCCCCCCOC(=O)CC(CC(=O)OCCCCCCCC/C=C\C/C=C\CCCCC)NC(=O)SCCN(C)C` [Compound DD, di((9Z,12Z)-octadeca-9,12-dien-1-yl) 3-((((2-(dimethylamino)ethyl)thio)carbonyl)amino)pentanedioate]: the “t(½) (hr) human serum 37 C.” value in series [2] was more than 50 h. Besides, the “Z (ave) nm” value in series [4] came to 137 nm. This compound registered a pKa in series [1] of 5.1. Besides, the “EE* (%) Encapsulation efficiency for siRNA” value in series [5] is 92%.

For the compound `CCCCC/C=C\C/C=C\CCCCCCCCOC(=O)CC(CC(=O)OCCCCCCCC/C=C\C/C=C\CCCCC)NC(=O)OCCN(C)C` [Compound E4, di((9Z,12Z)-octadeca-9,12-dien-1-yl) 3-(((2-(dimethylamino)ethoxy)carbonyl)amino)pentanedioate], the “t(½) (hr) human serum 37 C.” value in series [2] is more than 50 h. The compound further displayed a 50% effective concentration (EC50) in series [3] of 2.7 nM. In series [4], the “Z (ave) nm” value was 131 nm. Also, the “EE* (%) Encapsulation efficiency for siRNA” value in series [5] is listed as 94%.

Compound `CCCCC/C=C\C/C=C\CCCCCCCCOC(=O)[C@@H]1C[C@@H](NC(=O)CCN(C)C)CN1C(=O)CCCCCCC/C=C\C/C=C\CCCCC` [Compound E37, (9Z,12Z)-octadeca-9,12-dien-1-yl (2S,4R)-4-(3-(dimethylamino)propanamido)-1-((9Z,12Z)-octadeca-9,12-dienoyl)pyrrolidine-2-carboxylate] gave a pKa in series [1] of 9.2.

For the compound `CCCCC/C=C\C/C=C\CCCCCCCCOC(=O)[C@@H]1C[C@@H](NC(=O)CCCN(C)C)CN1C(=O)CCCCCCC/C=C\C/C=C\CCCCC` [Compound E38, (9Z,12Z)-octadeca-9,12-dien-1-yl (2S,4R)-4-(4-(dimethylamino)butanamido)-1-((9Z,12Z)-octadeca-9,12-dienoyl)pyrrolidine-2-carboxylate], the “t(½) (hr) human serum 37 C.” value in series [2] was more than 50 h.

As for `CCCCC/C=C\C/C=C\CCCCCCCCOC(=O)[C@@H]1C[C@@H](NC(=O)CCC[N+](C)(C)C)CN1C(=O)CCCCCCC/C=C\C/C=C\CCCCC` [Compound E39, N,N,N-trimethyl-4-(((3R,5S)-5-((((9Z,12Z)-octadeca-9,12-dien-1-yl)oxy)carbonyl)-1-((9Z,12Z)-octadeca-9,12-dienoyl)pyrrolidin-3-yl)amino)-4-oxobutan-1-aminium], the “t(½) (hr) human serum 37 C.” value in series [2] is more than 50 h.

The compound `CCCCC/C=C\C/C=C\CCCCCCCC(=O)OCCN(CCCN(C)C)C(=O)CCCCCCC/C=C\C/C=C\CCCCC` [Compound F5, 2-((9Z,12Z)—N-(3-(dimethylamino)propyl)octadeca-9,12-dienamido)ethyl (9Z,12Z)-octadeca-9,12-dienoate] came in with a 50% effective concentration (EC50) in series [3] of 33 nM. This compound also gave a pKa in series [1] of 9.4.

Compound `CCCCC/C=C\C/C=C\CCCCCCCC(=O)OCCN(CCCCN(C)C)C(=O)CCCCCCC/C=C\C/C=C\CCCCC` [Compound F6, 2-((9Z,12Z)—N-(4-(dimethylamino)butyl)octadeca-9,12-dienamido)ethyl (9Z,12Z)-octadeca-9,12-dienoate] gave a pKa in series [1] of 9.3.
